This note sets out measurements from patent US4309425A (priority 1980, dated 1982).

Molecules are shown by their SMILES.

One assay concerns two-spotted mites. Nature of the assay: two-spotted mites on bean plants, spray, mortality after two days. Type of assay: in vivo. The note with it: Tetranychus urticae, 48 h, read-out: % Mortality (2 days); for mortality at 0.00025 %: spray concentration .00025%; for mortality at 0.0005 %: spray concentration .0005%; for mortality at 0.001 %: spray concentration .001%. Here is the method: Mortality was evaluated two days after spraying.
Mortality after two days is set forth below.

The test system of another assay is mosquito larvae. Nature of the assay: mosquito larvae test (failure to become adults). As to conditions: 27°-30°, continuous light. The assay is classed as in vivo. Here is the method: Twenty-five newly hatched mosquito larvae were placed in 25 ml of distilled water in 4 oz glass jars, and 10 mg diet, consisting of 2 parts liver powder and 1 part brewer's yeast, was added.

Assay [1] relates to bean aphids (Aphis fabae). Put plainly: bean aphids on nasturtium leaves, spray. The assay is classed as in vivo. The note with it: 24 hours, read-out: 24 Hours Evaluation (% Kill). On the procedure: Stems of nasturtium leaves infested with bean aphids (Aphis fabae) were placed in individual vials of water. The leaves were sprayed to run-off with a series of suspensions of N-[N-[2-chloro-5-(trifluoromethyl)phenyl]-N-[2,4-dinitro-6-(trifluoromethyl)-phenyl]aminothio]-N,4-dimethylbenzenesulfonamide. Suspensions were prepared by dissolving 50 mg of the compound in 10 ml of acetone, adding 1 ml of 1% methocel 15, and diluting to volume with Duponol®:water at 1:3000. Evaluations with respect to % kill 24 hours later are set forth below.

In the next assay the test system is Pythium. Nature of the assay: Pythium infested soil test, cotton. The assay is classed as in vivo. The note with it: 1.5 kg/ha, 8 days. An excerpt: Pythium infested soil was placed in a 900 cc cup. Compounds of this invention were mixed at a rate of 1.5 kg/ha in a section 2" wide×2" deep×4" long to simulate an in-the-row application. Five cotton seeds were planted in the treated soil. After 8 days, the cotton plants were removed and rated for disease control.

Assay [2] concerns Phytophthora infestans. Put plainly: whole plant or invertebrate. The assay is classed as in vivo. The note with it: in Solanum lycopersicum, 96 h, read-out: % control tomato late blight in a residual wash-off test.
In assay [3] the test system is organo-phosphorous resistant two-spotted spider mites. Put plainly: organo-phosphorous resistant two-spotted spider mites on bean plants, spray, mortality after two days. The note with it: Tetranychus urticae, 48 h, read-out: % Mortality (2 days).
Assay [4] has as its system adult cotton boll weevils (Anthonomus grandis). Put plainly: adult cotton boll weevils spray test. Type of assay: in vivo. The note with it: 1% acetone solution, 24 hours. Here is the method: Five adult cotton boll weevils (Anthonomus grandis) were confined in a 4-oz. wide mouth jar. These were sprayed with a 1% acetone solution of the indicated compounds. Percent mortality after 24 hours is set forth below.

Another assay has as its system adult houseflies. Put plainly: adult houseflies spray test. The assay is classed as in vivo, housefly. As to conditions: Musca domestica; 1% acetone solutions, 24 hours. An excerpt:
Twenty adult houseflies were confined in each of several cylindrical stainless steel cages (7.5 cm D×4 cm high) with wire screens of the ends. These were sprayed with 1% acetone solutions of the indicated compounds.

In the next assay the test system is Venturia inaequalis. Nature of the assay: apple scab preventive test. Type of assay: in vivo. The note with it: 10-12 days. On the procedure:
Compounds of this invention are dissolved in acetone in an amount equal to 6% of the final volume and then suspended at a concentration of 20 ppm in purified water containing 25 ppm of the surfactant Alkanol® XC (sodium alkyl naphthalene sulfonate). This suspension is sprayed to the point of run-off on apple seedlings. The following day, the plants are inoculated with a spore suspension of the fungus Venturia inaequalis and incubated in a growth room for 10-12 days. Disease ratings are then made. […] Phytotoxicity in the form of foliar burn was observed on some of the plants in association with disease control.

A further assay has as its system Rhizopus. Nature of the assay: Rhizopus-corn meal mixture overspray test. The note with it: 168 h, 100 ppm, 20° C., 7 days, read-out: % control Rhizopus. Here is the method:
Compounds of this invention were dissolved in acetone in an amount equal to 6% of final volume and then suspended at a concentration of 100 ppm in purified water containing 500 ppm of the surfactant Alkanol® XC (sodium alkyl naphthalene sulfonate). This solution was oversprayed on a Rhizopus-corn meal mixture in 6 cm aluminum cups. The sprayed plates were placed in a closed plastic bag, stored at 20° C. for 7 days, and then rated.
The untreated cups were completely covered with Rhizopus mycelial growth, but the treated cups were mostly free of growth by this disease-causing organism.

Assay [5] relates to red-legged grasshoppers (Melanoplus femurrubrum). Put plainly: red-legged grasshoppers spray test. Type of assay: in vivo. As to conditions: 10 ppm in acetone, 48 hours. On the procedure: Five red-legged grasshoppers (Melanoplus femurrubrum) were confined in each of several cylindrical stainless steel cages (7.5 cm D×4 cm high) with wire screens at the end. These were sprayed with 10 ppm concentration of the indicated compounds in acetone solution. Percent mortality after 48 hours is recorded below.

For assay [6], the system named is brown dog ticks (Rhipicephalus sanguineus). Put plainly: brown dog ticks spray test. Type of assay: in vivo. The note with it: 48 h, 12.5 ppm in acetone, forty eight hours. On the procedure:
Four-ounce wide mouth jars, each containing 10 brown dog ticks (Rhipicephalus sanguineus), were sprayed with 12.5 ppm concentration of the indicated compounds in acetone solution. The ticks were confined with caps which were also sprayed. Forty eight hours later, percent mortality was determined.

In assay [7] the test system is Phytophthora infestans. Type of assay: in vivo. The note with it: 20 ppm, 4 days.

Consider `Cc1ccc(S(=O)(=O)N(C)SN(c2cc(C(F)(F)F)ccc2Cl)c2c([N+](=O)[O-])cc([N+](=O)[O-])cc2C(F)(F)F)cc1`, for which, in the assay on two-spotted mites, the mortality at 0.00025 % stood at 100%, the mortality at 0.0005 % was 100% and the mortality at 0.001 % is 100%. The “EC50 (concentration at which 50% of the initial larvae fail to become adults)” value in the assay on mosquito larvae is 0.00081 ppm. In assay [1] (spray concentration 0.005%), the mortality at 0.005 % came to 100%. Moreover, in assay [1] (spray concentration 0.1%), the mortality at 0.1 % amounted to 100%. For the same compound, the “% control Pythium” value with Pythium turned out to be 0%. In addition, the pest or weed control at 20 ppm with Phytophthora infestans [2] came to 100%. Moreover, in [3], the mortality at 0.0005 % was 93%, the mortality at 0.001 % stood at 97% and the mortality at 0.002 % amounted to 100%.
As for `CCCCN(SN(c1cc(C(F)(F)F)ccc1Cl)c1c([N+](=O)[O-])cc([N+](=O)[O-])cc1C(F)(F)F)S(=O)(=O)c1ccccc1C`, in the assay with two-spotted mites, the mortality at 0.00025 % stood at 100%, the mortality at 0.0005 % stood at 100% and the mortality at 0.001 % stood at 100%. In assay [4], the mortality at 1 % worked out at 100%. The compound also gave a mortality at 1 % with adult houseflies of 100%. Also, the pest or weed control at 20 ppm in the assay with Venturia inaequalis turned out to be 100%. The inhibition of growth at 100 ppm in the assay with Rhizopus was 90%. In addition, in [3], the mortality at 0.0005 % turned out to be 90%, the mortality at 0.001 % came out at 89% and the mortality at 0.002 % was determined as 100%.
Consider `CCCCN(SN(c1cc(C(F)(F)F)ccc1Cl)c1c([N+](=O)[O-])cc([N+](=O)[O-])cc1C(F)(F)F)S(=O)(=O)c1ccc(C)cc1`, for which the mortality at 1 % (in assay [4]; with adult houseflies) was 100% each time. The compound also had a mortality at 10 ppm in assay [5] of 100%. The compound also returned a mortality at 12.5 ppm in assay [6] of 100%. In the assay on Pythium, the “% control Pythium” value was determined as 0%. Besides, the pest or weed control at 20 ppm was 75% in the assay with Venturia inaequalis and 100% in the assay with Phytophthora infestans [2]. The “% control tomato late blight in a preventive test” value with Phytophthora infestans [7] is 100%.
